The values that follow come from ChEMBL document CHEMBL5154787 (J Med Chem, 2022).

The target of data set [1] is T1, AP2-associated protein kinase 1 (Homo sapiens, UniProt Q2M2I8). Put plainly: Inhibition of bacterially expressed GST-Xa-tagged human AAK1 using 5-FAM-labelled Aha-KEEQSQITSQVTGQIGWR-NH2 peptide as substrate incubated for 3 hrs in presence of ATP by electrophoretic analysis.
For data set [2], the target named is AP2-associated protein kinase 1 (Mus musculus, UniProt Q3UHJ0). Put plainly: Displacement of 3H-LP-927443 from AAK1 in C57BL6 mouse brain homogenate assessed as inhibition constant incubated for 1 hr by liquid scintillation counter analysis. It is filed as tissue-based.
For data set [3], the target named is T1, AP2-associated protein kinase 1. Put plainly: Inhibition of full length human AAK1 expressed in HEK293F cells assessed as suppression of AP2 phosphorylation measured after 3 hrs by Western blot analysis based cellular assay. In kind it is cell-based.
The nature of data set [4]: Metabolic stability in human liver microsomes assessed as parent compound remaining at 0.5 uM incubated for 10 mins in presence of NADPH by LC-MS/MS analysis. It is filed as ADME, Microsome. Conditions: read-out: Stability.
Data set [5] can be described thus: Metabolic stability in rat liver microsomes assessed as parent compound remaining at 0.5 uM incubated for 10 mins in presence of NADPH by LC-MS/MS analysis. It is filed as ADME, Microsome. The conditions noted are these: read-out: Stability.
Data set [6] can be described thus: Metabolic stability in mouse liver microsomes assessed as parent compound remaining at 0.5 uM incubated for 10 mins in presence of NADPH by LC-MS/MS analysis. In kind it is ADME, Microsome. The conditions noted are these: liver microsomes, read-out: Stability.
A further data set addresses Cytochrome P450 3A4 (Homo sapiens, UniProt P08684). The experiment in a line: Inhibition of CYP3A4 (unknown origin) incubated for 10 mins in presence of NADPH by LC-MS/MS analysis. It is filed as ADME.

Each structure is given as a SMILES string.

Sequence of Cytochrome P450 3A4 (P08684 whole entry): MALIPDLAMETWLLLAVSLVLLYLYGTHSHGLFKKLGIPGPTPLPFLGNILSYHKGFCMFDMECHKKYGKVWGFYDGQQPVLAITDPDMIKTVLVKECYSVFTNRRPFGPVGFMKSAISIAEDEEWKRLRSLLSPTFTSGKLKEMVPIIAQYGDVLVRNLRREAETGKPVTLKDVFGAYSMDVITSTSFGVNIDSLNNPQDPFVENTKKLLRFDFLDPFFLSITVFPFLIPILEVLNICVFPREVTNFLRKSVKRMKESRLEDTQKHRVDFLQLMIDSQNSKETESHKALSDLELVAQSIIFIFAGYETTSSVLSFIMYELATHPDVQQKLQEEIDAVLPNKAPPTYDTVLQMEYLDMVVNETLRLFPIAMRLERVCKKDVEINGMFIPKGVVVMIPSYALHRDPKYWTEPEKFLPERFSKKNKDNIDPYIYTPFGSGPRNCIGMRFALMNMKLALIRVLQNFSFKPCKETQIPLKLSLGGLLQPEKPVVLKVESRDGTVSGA
Sequence of AP2-associated protein kinase 1 (Mus musculus, UniProt Q3UHJ0) (Q3UHJ0 whole entry): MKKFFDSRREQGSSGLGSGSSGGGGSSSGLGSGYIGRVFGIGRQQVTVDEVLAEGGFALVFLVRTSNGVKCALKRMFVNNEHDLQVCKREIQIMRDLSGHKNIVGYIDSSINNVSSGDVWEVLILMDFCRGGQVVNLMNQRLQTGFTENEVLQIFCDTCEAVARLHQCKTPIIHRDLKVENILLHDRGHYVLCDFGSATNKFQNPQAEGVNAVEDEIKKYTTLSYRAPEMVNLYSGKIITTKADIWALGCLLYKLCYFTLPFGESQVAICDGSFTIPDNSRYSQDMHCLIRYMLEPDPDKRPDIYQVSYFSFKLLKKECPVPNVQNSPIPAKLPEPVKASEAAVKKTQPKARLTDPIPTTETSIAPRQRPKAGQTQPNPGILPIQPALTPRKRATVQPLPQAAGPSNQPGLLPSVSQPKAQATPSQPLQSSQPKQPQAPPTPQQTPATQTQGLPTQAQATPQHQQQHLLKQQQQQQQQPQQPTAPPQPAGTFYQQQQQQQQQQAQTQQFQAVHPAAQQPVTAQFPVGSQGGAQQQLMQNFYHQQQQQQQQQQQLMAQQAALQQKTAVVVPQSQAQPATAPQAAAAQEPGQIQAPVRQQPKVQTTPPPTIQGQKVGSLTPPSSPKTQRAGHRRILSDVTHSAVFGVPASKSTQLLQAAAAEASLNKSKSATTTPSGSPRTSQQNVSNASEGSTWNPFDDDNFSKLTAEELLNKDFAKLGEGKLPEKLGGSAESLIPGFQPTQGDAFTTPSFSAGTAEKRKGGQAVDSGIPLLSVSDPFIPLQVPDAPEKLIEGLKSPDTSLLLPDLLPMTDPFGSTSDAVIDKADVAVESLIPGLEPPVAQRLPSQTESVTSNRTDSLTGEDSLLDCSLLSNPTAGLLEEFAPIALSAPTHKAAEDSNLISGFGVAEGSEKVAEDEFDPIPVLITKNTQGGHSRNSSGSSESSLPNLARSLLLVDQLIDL
T1 sequence (Q2M2I8 whole entry): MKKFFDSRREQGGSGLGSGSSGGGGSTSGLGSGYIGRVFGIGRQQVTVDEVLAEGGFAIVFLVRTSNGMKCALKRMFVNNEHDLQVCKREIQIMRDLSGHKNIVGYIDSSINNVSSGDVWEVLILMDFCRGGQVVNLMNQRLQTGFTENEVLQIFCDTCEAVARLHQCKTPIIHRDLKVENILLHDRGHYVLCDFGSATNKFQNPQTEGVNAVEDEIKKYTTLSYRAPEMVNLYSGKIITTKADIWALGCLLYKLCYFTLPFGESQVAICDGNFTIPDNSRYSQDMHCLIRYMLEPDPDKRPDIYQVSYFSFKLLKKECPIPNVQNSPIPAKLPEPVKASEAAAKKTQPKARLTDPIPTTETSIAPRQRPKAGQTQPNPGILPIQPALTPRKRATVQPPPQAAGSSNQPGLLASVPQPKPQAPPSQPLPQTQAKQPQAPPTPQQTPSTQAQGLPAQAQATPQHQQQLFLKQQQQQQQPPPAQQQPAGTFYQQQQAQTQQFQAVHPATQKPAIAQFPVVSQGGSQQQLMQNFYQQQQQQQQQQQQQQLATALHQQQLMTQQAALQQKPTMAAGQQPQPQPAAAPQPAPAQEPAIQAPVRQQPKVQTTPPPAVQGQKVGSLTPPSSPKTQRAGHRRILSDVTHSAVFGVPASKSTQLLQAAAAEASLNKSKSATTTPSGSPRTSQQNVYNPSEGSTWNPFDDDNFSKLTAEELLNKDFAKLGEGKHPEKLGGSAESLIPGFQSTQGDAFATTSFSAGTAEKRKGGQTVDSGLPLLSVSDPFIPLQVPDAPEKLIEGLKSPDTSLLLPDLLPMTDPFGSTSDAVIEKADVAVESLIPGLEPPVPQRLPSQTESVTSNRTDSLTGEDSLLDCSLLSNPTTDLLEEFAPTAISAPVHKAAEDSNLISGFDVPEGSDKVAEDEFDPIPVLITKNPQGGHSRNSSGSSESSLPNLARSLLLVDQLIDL

On to `CC(=O)Nc1cc(-c2ccc(OC[C@@H](N)CC(C)C)c(C)c2)ccn1`, for which the IC50 stood at 0.4 nM in data set [1], 1.1 nM in data set [3] and 3900 nM at Cytochrome P450 3A4. In addition, in data set [2], the Ki came to 0.08 nM. In addition, the remaining at 10 min, 0.5 µM in data set [4] turned out to be 91%; in data set [5] it was 99%; in data set [6], 64%.

On to `CC(C)C[C@H](N)COc1ccc(-c2ccnc(NCc3ccccc3)c2)cc1`, for which the IC50 in data set [1] amounted to 127 nM.

As for `CC(C)C[C@](C)(N)COc1cnc(-c2ccnc(Cl)c2)cc1Cl`, the remaining at 10 min, 0.5 µM in data set [4] came to 86%; in data set [5], 98%; in data set [6] it was 92%. In addition, the half-maximal inhibitory concentration (IC50) on Cytochrome P450 3A4 was above 20000 nM.

For the compound `COC(=O)Nc1cc(-c2cc(OC)c(OC[C@@](C)(N)CC(C)C)cn2)ccn1`, the IC50 in data set [1] is 3.5 nM; at Cytochrome P450 3A4, above 20000 nM. Besides, the remaining at 10 min, 0.5 µM in data set [4] worked out at 91%; in data set [5] it was 96%; in data set [6], 100%.

As to `COC(=O)Nc1cc(-c2cc(Cl)c(OC[C@@](C)(N)CC(C)C)cn2)ccn1`, the values for the IC50 (in data set [1]; on Cytochrome P450 3A4) were 1.1 nM and above 20000 nM, respectively. In addition, the Ki in data set [2] amounted to 0.11 nM. For the same compound, the results for the remaining at 10 min, 0.5 µM in data set [4], in data set [5] and in data set [6] were 96%, 99% and 87%, respectively.

Regarding `COC(=O)Nc1cc(-c2ccc(OC[C@@](C)(N)CC(C)C)c(F)c2)ccn1`, the IC50 in data set [1] was 1.1 nM; at Cytochrome P450 3A4 it was above 20000 nM. For the same compound, in data set [2], the Ki was found to be 0.2 nM. For the same compound, the values for the remaining at 10 min, 0.5 µM in data set [4], in data set [5] and in data set [6] were 82%, 94% and 71%, respectively.

Take `Cc1cc(-c2cc(C(F)(F)F)c(OC[C@@](C)(N)CC(C)C)cn2)ccn1`: the IC50 in data set [1] was 1.2 nM; at Cytochrome P450 3A4 it was above 20000 nM. Moreover, the remaining at 10 min, 0.5 µM worked out at 90% in data set [4], 75% in data set [5] and 65% in data set [6].

In the case of `COC(=O)Nc1cc(-c2cc(C(F)(F)F)c(OC[C@@](C)(N)CC(C)C)cn2)ccn1`, the IC50 in data set [1] turned out to be 0.4 nM; in data set [3], 0.4 nM; on Cytochrome P450 3A4, 5300 nM. Besides, the results for the remaining at 10 min, 0.5 µM in data set [4], in data set [5] and in data set [6] were 80%, 79% and 78%, respectively.

In the case of `CC(=O)Nc1cc(-c2ccc(OC[C@@H](N)CC(C)C)c(OC(F)(F)F)c2)ccn1`, the IC50 in data set [1] turned out to be 0.5 nM; in data set [3] it was 0.45 nM; on Cytochrome P450 3A4, 230 nM. In addition, the Ki in data set [2] is 0.04 nM. Further, the remaining at 10 min, 0.5 µM in data set [4] was 91%; in data set [5], 80%; in data set [6], 35%.

Consider `Cc1cc(-c2cc(C)c(OC[C@@](C)(N)CC(C)C)cn2)ccn1`, for which the IC50 in data set [1] is 19 nM. For the same compound, the inhibition constant (Ki) in data set [2] stood at 4.7 nM. In addition, the remaining at 10 min, 0.5 µM is 79% in data set [4], 72% in data set [5] and 72% in data set [6].

Consider `COC(=O)Nc1cc(-c2cnc(OC[C@@](C)(N)CC(C)C)cc2C)ccn1`, for which the IC50 in data set [1] is 490 nM; at Cytochrome P450 3A4, above 20000 nM. Also, the Ki in data set [2] is 41 nM. Further, the remaining at 10 min, 0.5 µM in data set [4] was determined as 98%; in data set [5], 87%; in data set [6] it was 69%.

On to `CC(=O)Nc1cc(-c2ccc(OC[C@@H](N)CC(C)C)c(C(F)(F)F)c2)ccn1`, for which the figures for the IC50 (in data set [1]; in data set [3]; on Cytochrome P450 3A4) were 0.4 nM, 0.75 nM and 330 nM, respectively. The Ki in data set [2] was found to be 0.04 nM. Moreover, the remaining at 10 min, 0.5 µM in data set [4] is 91%; in data set [5], 82%; in data set [6], 53%.

For the compound `CC(=O)Nc1cc(-c2ccc(OC[C@@H](N)CC(C)C)c(Cl)c2)ccn1`, the IC50 in data set [1] stood at 0.5 nM; in data set [3] it was 0.2 nM; at Cytochrome P450 3A4 it was 2600 nM. For the same compound, the Ki in data set [2] is 0.06 nM. Moreover, the remaining at 10 min, 0.5 µM stood at 89% in data set [4], 100% in data set [5] and 86% in data set [6].

In the case of `CC(=O)Nc1cc(-c2cc(F)c(OC[C@@H](N)CC(C)C)c(Cl)c2)ccn1`, the Ki in data set [2] is 2.5 nM. Also, the IC50 in data set [3] stood at 6.8 nM; at Cytochrome P450 3A4 it was 800 nM. In addition, the remaining at 10 min, 0.5 µM in data set [4] turned out to be 94%; in data set [5], 97%; in data set [6], 75%.

For the compound `CC(=O)Nc1cc(-c2ccc(OC[C@@H](N)CC(C)C)cc2)ccn1`, the values for the IC50 in data set [1] and in data set [3] were 4.6 nM and 8.1 nM, respectively. Also, in data set [2], the inhibition constant Ki came to 0.9 nM.

On to `CC(C)C[C@H](N)COc1ccc(-c2ccnc(N)c2)cc1`, for which, in data set [1], the IC50 was found to be 21 nM. In data set [2], the Ki turned out to be 13 nM.

Turning to `CC(=O)Nc1cc(-c2cc(F)c(OC[C@@H](N)CC(C)C)c(F)c2)ccn1`, in data set [2], the Ki is 27 nM. Also, the remaining at 10 min, 0.5 µM was 90% in data set [4], 100% in data set [5] and 90% in data set [6]. Also, the IC50 on Cytochrome P450 3A4 is 1300 nM.

For the compound `COC(=O)Nc1cc(-c2ccc(OC[C@@](C)(N)CC(C)C)c(CO)c2)ccn1`, the Ki in data set [2] turned out to be 0.63 nM. Moreover, the IC50 is 3.9 nM in data set [3] and above 20000 nM at Cytochrome P450 3A4. Besides, the remaining at 10 min, 0.5 µM stood at 91% in data set [4], 100% in data set [5] and 95% in data set [6].

In the case of `COC(=O)Nc1cc(-c2ccc(OC[C@@](C)(N)CC(C)C)nc2)ccn1`, the IC50 in data set [1] is 28 nM; at Cytochrome P450 3A4 it was above 20000 nM. Moreover, in data set [2], the Ki stood at 4.9 nM. Moreover, the remaining at 10 min, 0.5 µM stood at 100% in data set [4], 96% in data set [5] and 79% in data set [6].

Regarding `COC(=O)Nc1cc(-c2cc(C(F)F)c(OC[C@@](C)(N)CC(C)C)cn2)ccn1`, the IC50 was 0.4 nM in data set [1] and above 20000 nM at Cytochrome P450 3A4. In data set [2], the inhibitory constant (Ki) amounted to 0.07 nM. Further, the remaining at 10 min, 0.5 µM in data set [4] stood at 79%; in data set [5], 87%; in data set [6], 63%.

In the case of `CC(=O)Nc1cc(-c2ccc(OC[C@@](C)(N)CC(C)C)c(C(F)F)c2)ccn1`, the IC50 was found to be 0.6 nM in data set [1] and 0.5 nM in data set [3]. In addition, in data set [2], the Ki was determined as 0.05 nM. Besides, the remaining at 10 min, 0.5 µM in data set [4] is 74%; in data set [5], 84%; in data set [6] it was 57%.

Regarding `COC(=O)Nc1cc(-c2ccc(OC[C@@H](N)CC(C)C)c(F)c2)ccn1`, the IC50 is 1.2 nM in data set [1] and 2100 nM at Cytochrome P450 3A4. For the same compound, the remaining at 10 min, 0.5 µM in data set [4] came to 92%; in data set [5] it was 84%; in data set [6], 80%.

Regarding `COC(=O)Nc1cc(-c2ccc(OC[C@@](C)(N)CC(C)C)cn2)ccn1` (racemic), the IC50 in data set [1] was 23 nM; at Cytochrome P450 3A4, above 20000 nM. For the same compound, in data set [2], the Ki turned out to be 18 nM. Further, the remaining at 10 min, 0.5 µM in data set [4] was 93%; in data set [5], 100%; in data set [6], 93%.

Take `COC(=O)Nc1cc(-c2ccc(OC[C@@](C)(N)CC(C)C)c(C)c2C)ccn1` (racemic): the results for the IC50 in data set [1] and in data set [3] were 4.5 nM and 9.7 nM, respectively. Also, in data set [2], the Ki is 0.26 nM. Besides, the remaining at 10 min, 0.5 µM came out at 93% in data set [4], 83% in data set [5] and 70% in data set [6].
